In patent US20040259865A1, “Pyrimidone compounds and pharmaceutical compositions containing the same” (priority 2001, published 2004):
Values joined by “and” are separate entries in the source; they are usually repeats but may differ in a detail not shown here. Equal entries are not always repeated.

Columns and labels:
colon tract = test: Inhibitory effect of adenosine receptor antagonist on suppressing action of NECA on Carbachol-stimulated contraction of the colon tract; set-up: species or system rat; details: for Contraction (%) Mean: Carbachol 0.3 μM + NECA 1 μM = 0%, Carbachol 0.3 μM = 100%; for Inhibition of the suppressing effect of NECA on the contraction (in words): rat colon tract, Carbachol + NECA
Procedure: The abdomen of a rat under anesthesia with ether was opened, and from the rectum to the cecum was excised therefrom and soaked in ice-cooled Tyrode solution (containing 136 mM NaCl, 2.7 mM KCl, 0.4 mM NaH2PO4.2H2O, 5.6 mM glucose, 11.9 mM NaHCO3, 1 mM MgCl2.6H2O, 1.8 mM CaCl2). Surrounding connective tissues were removed, and the intestinal tract was cut at positions apart by 1.5 cm from the rectum and by 3 cm from the cecum, to give a colon tract of about 3 cm in full length. Both the terminals of the colon tract were pinched respectively with Serrefines (trade name) to which a string had been connected, and the colon tract with the side of the cecum facing upward was immediately suspended in a Magnus tube filled with Tyrode solution previously warmed at 37° C., and then equilibrated by bubbling with a gas (O2/CO2=95/5). The string connected to the Serrefines (trade name) at the side of the cecum was suspended, and the change in the length of the colon tract was detected with an amplifier for strain pressure (Nihon Kohden Corporation).
In the experiment, 3 samples were used.

SD IGS rats [1] = test: Defecation-promoting action in rat (Test Example 2); format: in vivo; details: for The number of fecalpellets/3 rats: 180 minutes after administration; for Defecation-promoting action (in words): Table 4
Procedure: (§1) SD IGS rats (6-weeks-old, from Charles River) were placed in cages (3 animals/cage) and preliminarily allowed food and water ad libitum and raised for 1 week. On the day of the experiment, their weight was measured, a water-absorbing sheet was placed below each cage, and the animals were fasted but allowed water ad libitum throughout the experiment. Three hours after fasting was initiated, the fecal pellets were recovered from each cage and observed for abnormality before the experiment, and then the compound suspended or dissolved in 0.5% (W/V) methyl cellulose (MC) was orally administered into each rat in a dose of 5 ml/kg. On one hand, 0.5% (W/V) MC only was orally given to the control group. After administering the compound, the rats were returned to the cage provided with anew water-absorbing sheet of known weight, and 180 minutes after the administration, the fecal pellets on the water-absorbing sheet were recovered from each cage, and the external appearance was observed, and the number of fecal pellets was counted. The number of fecal pellets is expressed per each cage (Table 4). After the fecal pellets were recovered, the water-absorbing sheet was weighed, and the weight determined by subtracting the initial weight of the water-adsorbing sheet from the weight after the experiment was regarded as the volume of urine and expressed as the volume of urine per 100 g of the body weight (Table 4).

[2] = Urine volume / diuretic action in rat (Test Example 2); format: in vivo; details: for Urine Volume (g/100 g body weight): 180 minutes
Procedure: as §1

SD IGS rats [3] = test: Contribution of A2b inhibition to defecation-promoting action (Test Example 3); format: in vivo, rat; details: 180 minutes
Procedure: as §1
After administering the compounds, the rats were returned to the cage under which a new water-absorbing sheet had been installed, and after 180 minutes, the fecal pellets on the water-absorbing sheet were recovered from each cage, and the outward appearance was observed and the number of fecal pellets was counted. The number of fecal pellets is expressed per cage (Table 5).

[4] = biological target: T1, human adenosine A1 receptor (Homo sapiens, UniProt P30542); test: Ability to bind to adenosine A1 receptor (3H-CCPA); format: binding; details: CHOK1 membranes, Cheng-Prusoff
T1 sequence (P30542 1-326): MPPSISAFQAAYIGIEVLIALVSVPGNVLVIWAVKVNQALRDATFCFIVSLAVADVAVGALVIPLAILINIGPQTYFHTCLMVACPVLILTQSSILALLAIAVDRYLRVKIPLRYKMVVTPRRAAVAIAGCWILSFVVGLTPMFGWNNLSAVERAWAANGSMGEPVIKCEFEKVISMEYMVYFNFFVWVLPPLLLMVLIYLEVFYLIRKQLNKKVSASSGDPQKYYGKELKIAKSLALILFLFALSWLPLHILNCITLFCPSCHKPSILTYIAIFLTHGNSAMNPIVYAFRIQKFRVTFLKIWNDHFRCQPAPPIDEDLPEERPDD
Procedure: To 0.45 ml of this membrane sample suspension were added 0.025 ml of 60 nM tritium-labeled chlorocyclopentyl adenosine (3H-CCPA, from NEN Ltd.) and 0.025 ml test compound. This mixture was left at 30° C. for 120 minutes, filtered rapidly under suction through a glass fiber filter (GF/B, from Whatman), and immediately washed twice with 5 ml of 50 mM water-cooled Tris-HCl buffer. Thereafter, the glass fiber filter was transferred to a vial, a scintillator was added thereto, and the radioactivity on the filter was measured by a liquid scintillation counter.
Inhibition (%)=[1−{binding in the presence of the test compound-non-specific binding)/(total binding-non-specific binding)}]×100
In the above formula, the total binding means ^3H—CCPA-bound radioactivity in the absence of the test compound; the non-specific binding means ^3H-CCPA-bound radioactivity in the presence of 100 μM RPIA ([R]-[1-methyl-2-phenylethyl]adenosine); and the binding in the presence of the test compound means ^3H-CCPA-bound radioactivity in the […] of the test compound at predetermined concentrations. The inhibition constant (Ki value) in the table was determined from the formula of Cheng-Prusoff.

[5] = biological target: T2, human adenosine A2b receptor (Homo sapiens, UniProt P29275); test: Inhibition of NECA-stimulated production of cAMP in adenosine A2b receptor-expressing cells; format: cell-based
T2 construct: expressed in transfected cells; host or cells: CHOK1 cells
T2 sequence (P29275 1-332): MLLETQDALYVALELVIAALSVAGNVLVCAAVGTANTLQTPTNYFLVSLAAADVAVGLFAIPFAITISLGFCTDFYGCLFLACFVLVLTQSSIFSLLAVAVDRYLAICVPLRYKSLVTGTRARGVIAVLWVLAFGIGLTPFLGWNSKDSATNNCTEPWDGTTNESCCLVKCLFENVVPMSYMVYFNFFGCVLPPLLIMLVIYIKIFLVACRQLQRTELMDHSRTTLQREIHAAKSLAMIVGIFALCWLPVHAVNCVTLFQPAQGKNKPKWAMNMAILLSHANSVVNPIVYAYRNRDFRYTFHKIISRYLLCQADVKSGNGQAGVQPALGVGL
Procedure: CHOK1 cells where a human adenosine A2b receptor had been expressed in excess were plated onto a 24-well plate at a density of 1.5×10^5 cells/well, cultured overnight, and used in the experiment. […] That is, the adhering cells were washed twice with 2 ml/well Krebs-Ringer buffer solution (containing 0.1% BSA; pH 7.4) and pre-incubated for 30 minutes in a volume of 0.5 ml/well. […] After pre-incubation for 15 minutes, the reaction was terminated with 0.1 N HCl in a volume of 300 μl/well. Measurement of intracellular cAMP was carried out using a cAMP enzyme immunoassay kit produced by Amersham.

SD IGS rats [6] = test: Evaluation of defecation-promoting action (Tables 8 and 10); format: in vivo, rat; details: 3 mg/kg oral; Table 8, n = 4 cages/group
Source text: For example, the defecation-promoting actions of 8-phenyltheophylline (“8-PT” in the table below) and 5-[6-amino-8-(3-fluorophenyl)-9H-9-purinyl]-1-methyl-1,2-di hydro-2-pyridinone (Compound II in the table below) disclosed in Example Number 5 described in WO 2001/2400 were as shown below. 8-PT can be easily produced according to the description of Drug Development Research 47: 45-53 (1999), or is easily available as a commercial product (in this test, it was purchased from Sigma).
That is, SD IGS rats (6- to 7-weeks-old, from Charles River) were placed in cages (3 animals/cage) and preliminarily allowed food and water ad libitum and raised for 1 week. On the day of the experiment, their weight was measured, a water-absorbing sheet was placed below each cage, and the animals were fasted but allowed water ad libitum throughout the experiment. Thee hours after fasting was initiated, the fecal pellets were recovered from each cage and observed for abnormality before the experiment, and then the compound suspended in 0.5% (w/v) methyl cellulose (MC) was orally administered in a dose of 5 ml/kg. On one hand, 0.5% (w/v) MC only was orally given to the control group. After administration of the compound, the rats were returned to the cage provided with a new water-absorbing sheet, and 180 minutes after the administration, the fecal pellets on the water-absorbing sheet were recovered from each cage, and the external appearance was observed, and the number of fecal pellets was counted. The number of fecal pellets is expressed per each cage.

Row | Compound | Contraction (%) Mean (colon tract; antagonist 0.1 μM) [%] | Contraction (%) Mean (colon tract; antagonist 0.4 μM) [%] | Contraction (%) Mean (colon tract; antagonist 1.4 μM) [%] | Contraction (%) Mean (colon tract; antagonist 4.4 μM) [%] | Inhibition of the suppressing effect of NECA on the contraction (in words) (colon tract) | The number of fecalpellets/3 rats (SD IGS rats [1]; 3 mg/kg oral) [fecalpellets/3 rats] | The number of fecalpellets/3 rats (SD IGS rats [1]; 10 mg/kg oral) [fecalpellets/3 rats] | Diarrhea (SD IGS rats [1]; rat, oral) | Defecation-promoting action (in words) (SD IGS rats [1]; rat, oral) | Urine Volume (g/100 g body weight) ([2]; 3 mg/kg oral) | Urine Volume (g/100 g body weight) ([2]; 10 mg/kg oral) | Diuretic action (comparison in words) ([2]; rat, oral) | The number of fecalpellets/3 rats (SD IGS rats [3]; 3 mg/kg, without KW 6002) [fecalpellets/3 rats] | Ki [4] [nM] | IC50 [5] [nM] | The number of fecalpellets/3 rats (SD IGS rats [6]) | The number of fecalpellets/3 rats (SD IGS rats [1]; 1 mg/kg oral) [fecalpellets/3 rats] | Urine Volume (g/100 g body weight) ([2]; 1 mg/kg oral) | The number of fecalpellets/3 rats (SD IGS rats [3]; KW 3902 0 mg/kg + KW 6002 (1 mg/kg)) [fecalpellets/3 rats]
1 | Nc1ncc(-c2ccncc2)c(-c2ccco2)n1 [Compound I, 4-(2-Furyl)-5-(4-pyridyl)-2-pyrimidinyl amine] | 71.5 | 111.0 | 122.0 | 85.9 | inhibited the suppressing effect of NECA on the contraction | 16.33 ± 1.82 | 30.00 ± 2.79 | did not cause diarrhea | evidently higher defecation-promoting action than the A1-selective antagonist KW3902 or the A2a-selective antagonist KW6002 | 0.79 ± 0.09 | 1.23 ± 0.13 | weaker diuretic action than the A1-selective antagonist KW3902 | 34.00 ± 1.00 | 660 | 8.4 | 19.75 ± 2.50 fecalpellets/3 rats and 20.75 ± 3.15 fecalpellets/3 rats |  |  | 
2 | CCn1c(=O)c2c(nc(/C=C/c3ccc(OC)c(OC)c3)n2C)n(CC)c1=O [KW 6002] | 5.2 | 1.1 | −2.9 | −3.9 | did not show any inhibitory effect | 7.00 ± 0.86 |  |  | low defecation-promoting action | 0.76 ± 0.05 |  |  |  | 22600 |  |  | 6.67 ± 1.63 | 0.72 ± 0.07 | 7.00 ± 1.58
